What all share (format): cell-based, mouse
In assay [1] the test system is choline mobilization via the Kennedy pathway. In words: Choline, phosphocholine and phosphatidylcholine content of LPS-stimulated BMDM (NMR, MS). To be noted: RSM932A-pretreated BMDM, LPS 4 hr. As for the experimental part:
Choline and Phosphocholine Analysis by NMR—BMDM were treated with LPS for 4 hr and then were collected and processed for NMR analysis as described (Guma et al., 2015a; Tiziani et al., 2009). Polar metabolite isolation was performed using a modified Bligh-Dyer procedure (Wu et al., 2008). Extracts were dried using a CentriVap refrigerated vacuum concentrator (Labconco, Kansas City, MO, USA). Dried extracts were reconstituted in 100 mM phosphate buffer (pH 7.0) prepared in 10% H2O/90% D2O (Sigma) that contained 0.5 mM sodium 3-(trimethylsilyl)propionate-2,2,3,3,-d4 (TMSP) as the internal standard. One-dimensional ^1H NMR spectra were acquired on a Bruker Avance III 500 MHz with 1.7 mm TCI MicroCryoProbe system (Bruker BioSpin Corp., Billerica, MA) equipped with an autosampler at 300 K and processed as previously described (Lodi et al., 2017; Lu et al., 2017; Ludwig and Gunther, 2011). Metabolite assignment and quantification were performed using the Chenomx 8.2 NMR Suite (Chenomx Inc., Edmonton, Alberta, Canada), the Birmingham Metabolite Library (Ludwig et al., 2012), and the Human Metabolome Database (Wishart et al., 2012).
Total phosphatidylcholine and mitochondrial lipids analysis by mass spectrometry—Total phosphatydilcholine (PC) analysis was measured in RSM932A-pretreated BMDM stimulated with LPS for 4 hr, while mitochondrial lipids were measured in mitochondria isolated from BMDM cultured in control or choline deficient medium and subjected to different treatments for 24 hr. Samples were processed for UHPLC-MS/MS analysis and analysis was performed on a hybrid quadrupole-Orbitrap mass spectrometer (Q Exactive, Thermo Scientific, Bremen, Germany) coupled to an Accela 1250 UHPLC system equipped with a quaternary pump, vacuum degasser, and open autosampler with temperature controller (6° C.; Fisher Scientific, San Jose, CA, USA). […]

Assay [2] relates to BMDM. Kind of assay: Mitochondrial reactive oxygen species (MitoSOX). To be noted: BMDM pretreated with RSM932A, LPS+DOTAP or LPS+nigericin. On the procedure: Mitochondrial Function—Mitochondrial membrane potential (Ψm) was measured using TMRM (#T668, Life Technologies) according to manufacturer's instructions. Briefly, RSM932A-pretreated BMDM and shCtrl and shChoKα iBMDM were primed with LPS for 4 hr. Cells were stained with 200 nM TMRM for 30 min at 37° C., and then treated with CCCP (5 μM) for 5 min. After washing twice, fluorescence intensity was determined per manufacturer's instructions using a FilterMax F5 multimode plate reader (Molecular Devices), Mitochondrial reactive oxygen species (mtROS) was measured using MitoSOX (Invitrogen) as described (Zhong et al., 2016c). […] After washing with PBS, fluorescence intensity was determined at 510/580 nm using a FilterMax F5 plate reader. NAD^+/NADH ratio was measured using NAD^+/NADH Cell-Based Assay kit according to manufacturer's instructions (Cayman Chemical Company). […] Absorbance was measured at 450 nm using FilterMax F5 plate reader. Complex V ATP synthase activity was measured in mitochondria isolated from BMDM treated with LPS for 24 hr using Complex V Activity Assay kit (Cayman Chemical Company) according to manufacturer's instructions. Absorbance was measured at 340 nm at 30-second intervals for 30 min using a FilterMax F5 plate reader. Cellular ATP was measured after 24 hr LPS stimulation using CellTiter-Glo Luminescent Assay (Promega) as described (Ip et al., 2017). […]

Assay [3] has as its system NLRP3 inflammasome components. Kind of assay: Immunoblot of NLRP3 inflammasome components in BMDM. To be noted: BMDM pretreated with RSM932A. As for the experimental part: Protein Immunoblotting and ELISA—Mitochondria were isolated using Mitochondria Isolation kit. Whole cell lysates were prepared in NP40 buffer containing a protease inhibitor cocktail and a phosphatase inhibitor cocktail, and supernatants were analyzed by SDS-PAGE. Proteins were transferred into PVDF membranes, blocked in 5% BSA and 1×TBST for 1 hr, and incubated with indicated antibodies overnight. Secondary antibodies were added for 1 hr and detection was done using CLARITY™ Western ECL Substrate (Biorad). Paired antibodies (capture and detection) and standard recombinant mouse IL-1β (R&D Systems), and TNF and IL-6 (eBioscience) were used to determine cytokine concentrations according to manufacturer's instructions.
(In general: A western blot detects proteins with antibodies after separation by electrophoresis.)

This is an account of results in patent publication US12458659B2, “Methods for treating macrophage-mediated diseases, and methods of identifying agents useful therefore” (The Regents of the University of California, priority 2019, dated 2025).

Structures are written as SMILES.

On to `C/[N+](c1ccc(Cl)cc1)=c1\ccn(Cc2ccc(-c3ccc(Cn4cc/c(=[N+](/C)c5ccc(Cl)cc5)c5ccccc54)cc3)cc2)c2ccccc12` [RSM932A], for which the “LPS-induced increase in cellular content of phosphocholine, glycerol-3-phosphocholine and phosphatidylcholine (PC)” value in assay [1] is reported as “blocked”. Moreover, the “production of mitochondrial reactive oxygen species (mtROS)” value in assay [2] is “attenuated”. For the same molecule, the “expression of NLRP3 inflammasome components (caspase-1, NLRP3, ASC, pro-IL-1β induced by LPS)” value in assay [3] is given as “did not alter”.
